Results reported in PubChem BioAssay (NCI).
Where “and” joins values, the source holds several entries; their conditions need not be identical. Equal values may be shown once.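 Results reflect a 48-hour exposure of cells in 96-well plates to compound at five concentrations. GI50: concentration for 50% inhibition of growth. TGI: concentration producing complete growth inhibition.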

Experiments:
Test in all cases: NCI-60 cell line screen, 48 h
786-0 renal = system: 786-0 renal
A498 renal = system: A498 renal
A549 NSCLC = system: A549 NSCLC
ACHN renal = system: ACHN renal
BT-549 breast = system: BT-549 breast
CAKI-1 renal = system: CAKI-1 renal
CCRF-CEM leukemia = system: CCRF-CEM leukemia
COLO 205 colon = system: COLO 205 colon
DU-145 prostate = system: DU-145 prostate
EKVX NSCLC = system: EKVX NSCLC
HCC-2998 colon = system: HCC-2998 colon
HCT-116 colon = system: HCT-116 colon
HCT-15 colon = system: HCT-15 colon
HL-60(TB) leukemia = system: HL-60(TB) leukemia
HOP-62 NSCLC = system: HOP-62 NSCLC
HOP-92 NSCLC = system: HOP-92 NSCLC
HS 578T breast = system: HS 578T breast
HT29 colon = system: HT29 colon
IGROV1 ovarian = system: IGROV1 ovarian
K-562 leukemia = system: K-562 leukemia
KM12 colon = system: KM12 colon
LOX IMVI melanoma = system: LOX IMVI melanoma
M14 melanoma = system: M14 melanoma
MALME-3M melanoma = system: MALME-3M melanoma
MCF7 breast = system: MCF7 breast
MDA-MB-231 breast = system: MDA-MB-231 breast
MDA-MB-435 = system: MDA-MB-435
MOLT-4 leukemia = system: MOLT-4 leukemia
NCI-H226 lung = system: NCI-H226 lung
NCI-H23 lung = system: NCI-H23 lung
NCI-H460 lung = system: NCI-H460 lung
NCI-H522 lung = system: NCI-H522 lung
NCI/ADR-RES ovarian = system: NCI/ADR-RES ovarian
OVCAR-3 ovarian = system: OVCAR-3 ovarian
OVCAR-4 ovarian = system: OVCAR-4 ovarian
OVCAR-5 ovarian = system: OVCAR-5 ovarian
OVCAR-8 ovarian = system: OVCAR-8 ovarian
PC-3 prostate = system: PC-3 prostate
RPMI-8226 leukemia = system: RPMI-8226 leukemia
RXF 393 renal = system: RXF 393 renal
SF-268 CNS = system: SF-268 CNS
SF-295 CNS = system: SF-295 CNS
SF-539 CNS = system: SF-539 CNS
SK-MEL-2 melanoma = system: SK-MEL-2 melanoma
SK-MEL-28 melanoma = system: SK-MEL-28 melanoma
SK-MEL-5 melanoma = system: SK-MEL-5 melanoma
SK-OV-3 ovarian = system: SK-OV-3 ovarian
SN12C renal = system: SN12C renal
SNB-19 CNS = system: SNB-19 CNS
SNB-75 CNS = system: SNB-75 CNS
SR leukemia = system: SR leukemia
SW-620 colon = system: SW-620 colon
T-47D breast = system: T-47D breast
TK-10 renal = system: TK-10 renal
U251 CNS = system: U251 CNS
UACC-257 melanoma = system: UACC-257 melanoma
UACC-62 melanoma = system: UACC-62 melanoma
UO-31 renal = system: UO-31 renal

Q: What does the source list for `CC1CCCc2sc3nc(NNC(=O)c4cnccn4)n(-c4ccccc4)c(=O)c3c21` (stereo not given)?
A: GI50 (786-0 renal): 0.508 µM and 0.274 µM; TGI (786-0 renal): 12.4 µM and 5.43 µM; GI50 (A498 renal): 2.62 µM and 0.688 µM; TGI (A498 renal): 8.54 µM and 4.44 µM; GI50 (A549 NSCLC): 0.367 µM and 0.262 µM; TGI (A549 NSCLC): 22.4 µM and 16.2 µM; GI50 (ACHN renal): 0.331 µM and 0.217 µM; TGI (ACHN renal): 18.7 µM and 13.1 µM; GI50 (BT-549 breast): 0.813 µM and 0.472 µM; TGI (BT-549 breast): 28.6 µM and 12.4 µM; GI50 (CAKI-1 renal): 0.559 µM and 0.334 µM; TGI (CAKI-1 renal): > 54.4 µM and 9.23 µM; GI50 (CCRF-CEM leukemia): 0.295 µM and 0.169 µM; TGI (CCRF-CEM leukemia): > 100 µM; GI50 (COLO 205 colon): 0.327 µM and 0.284 µM; TGI (COLO 205 colon): 3.52 µM and 25 µM; GI50 (DU-145 prostate): 0.598 µM and 0.339 µM; TGI (DU-145 prostate): > 39.8 µM and 18.9 µM; GI50 (EKVX NSCLC): 0.383 µM and 0.258 µM; TGI (EKVX NSCLC): > 100 µM; GI50 (HCC-2998 colon): 0.55 µM and 0.324 µM; TGI (HCC-2998 colon): 26.3 µM and 16.3 µM; GI50 (HCT-116 colon): 0.338 µM and 0.264 µM; TGI (HCT-116 colon): 14 µM and 13.4 µM; GI50 (HCT-15 colon): 0.237 µM and 0.0717 µM; TGI (HCT-15 colon): 34.4 µM and 17.6 µM; GI50 (HL-60(TB) leukemia): 0.367 µM and 0.279 µM; TGI (HL-60(TB) leukemia): 2.75 µM and 0.908 µM; GI50 (HOP-62 NSCLC): 0.385 µM and 0.203 µM; TGI (HOP-62 NSCLC): > 100 µM; GI50 (HOP-92 NSCLC): 0.996 µM and 0.397 µM; TGI (HOP-92 NSCLC): 21.8 µM and 16.6 µM; GI50 (HS 578T breast): 3.46 µM and 2.79 µM; TGI (HS 578T breast): > 74.6 µM and 87.3 µM; GI50 (HT29 colon): 0.975 µM and 0.461 µM; TGI (HT29 colon): 49 µM and 17.6 µM; GI50 (IGROV1 ovarian): 0.327 µM and 0.172 µM; TGI (IGROV1 ovarian): 16.9 µM and 13.3 µM; GI50 (K-562 leukemia): 0.454 µM and 0.399 µM; TGI (K-562 leukemia): > 100 µM; GI50 (KM12 colon): 0.428 µM and 0.347 µM; TGI (KM12 colon): > 49.1 µM and 32.5 µM; GI50 (LOX IMVI melanoma): 0.259 µM and 0.195 µM; TGI (LOX IMVI melanoma): 3.8 µM and 8.06 µM; GI50 (M14 melanoma): 0.321 µM and 0.205 µM; TGI (M14 melanoma): 5.44 µM and 2.65 µM; GI50 (MALME-3M melanoma): 0.657 µM and 0.345 µM; TGI (MALME-3M melanoma): 11.6 µM and 11.1 µM; GI50 (MCF7 breast): 0.325 µM and 0.238 µM; TGI (MCF7 breast): > 79.3 µM and 14.4 µM; GI50 (MDA-MB-231 breast): 0.425 µM and 0.328 µM; TGI (MDA-MB-231 breast): 13.4 µM and 13.5 µM; GI50 (MDA-MB-435): 0.7 µM and 0.556 µM; TGI (MDA-MB-435): 25.1 µM and > 40.8 µM; GI50 (MOLT-4 leukemia): 0.343 µM and 0.256 µM; TGI (MOLT-4 leukemia): > 100 µM; GI50 (NCI-H226 lung): 0.634 µM and 0.277 µM; TGI (NCI-H226 lung): 9.6 µM and 5.75 µM; GI50 (NCI-H23 lung): 0.871 µM and 0.465 µM; TGI (NCI-H23 lung): > 100 µM and 26.5 µM; GI50 (NCI-H460 lung): 0.25 µM and 0.121 µM; TGI (NCI-H460 lung): 11.4 µM and 2.27 µM; GI50 (NCI-H522 lung): 0.392 µM and 0.327 µM; TGI (NCI-H522 lung): 10.2 µM and 16.6 µM; GI50 (NCI/ADR-RES ovarian): 0.38 µM and 0.232 µM; GI50 (OVCAR-3 ovarian): 0.288 µM and 0.249 µM; TGI (OVCAR-3 ovarian): 22.2 µM and 12.5 µM; GI50 (OVCAR-4 ovarian): 0.211 µM and 0.215 µM; TGI (OVCAR-4 ovarian): > 100 µM; GI50 (OVCAR-5 ovarian): 0.656 µM and 0.371 µM; TGI (OVCAR-5 ovarian): 30.9 µM and 33.6 µM; GI50 (OVCAR-8 ovarian): 0.346 µM and 0.333 µM; TGI (OVCAR-8 ovarian): > 93.2 µM; GI50 (PC-3 prostate): 0.499 µM and 0.385 µM; TGI (PC-3 prostate): 22.2 µM and 26.6 µM; GI50 (RPMI-8226 leukemia): 0.563 µM and 0.277 µM; TGI (RPMI-8226 leukemia): 17.9 µM and 16.6 µM; GI50 (RXF 393 renal): 0.955 µM and 0.454 µM; TGI (RXF 393 renal): 5.48 µM and 3.84 µM; GI50 (SF-268 CNS): 0.346 µM and 0.207 µM; TGI (SF-268 CNS): > 100 µM; GI50 (SF-295 CNS): 0.479 µM and 0.159 µM; TGI (SF-295 CNS): 15.4 µM and 7.81 µM; GI50 (SF-539 CNS): 0.658 µM and 0.328 µM; TGI (SF-539 CNS): 10.3 µM and 4.32 µM; GI50 (SK-MEL-2 melanoma): 1.05 µM and 0.705 µM; TGI (SK-MEL-2 melanoma): 19.4 µM and 19.8 µM; GI50 (SK-MEL-28 melanoma): 0.485 µM and 0.378 µM; TGI (SK-MEL-28 melanoma): 19.8 µM and 32.5 µM; GI50 (SK-MEL-5 melanoma): 0.371 µM and 0.205 µM; TGI (SK-MEL-5 melanoma): 1.81 µM and 0.933 µM; GI50 (SK-OV-3 ovarian): 0.489 µM and 0.544 µM; TGI (SK-OV-3 ovarian): 8.42 µM and 8.2 µM; GI50 (SN12C renal): 0.468 µM and 0.368 µM; TGI (SN12C renal): 15.9 µM and 13.7 µM; GI50 (SNB-19 CNS): 0.389 µM and 0.34 µM; TGI (SNB-19 CNS): > 100 µM; GI50 (SNB-75 CNS): 1.06 µM and 0.899 µM; TGI (SNB-75 CNS): 38.7 µM and > 50 µM; GI50 (SR leukemia): 0.361 µM and 0.11 µM; TGI (SR leukemia): > 32.6 µM; GI50 (SW-620 colon): 0.483 µM and 0.463 µM; TGI (SW-620 colon): > 100 µM; GI50 (T-47D breast): 0.52 µM and 0.397 µM; TGI (T-47D breast): > 100 µM; GI50 (TK-10 renal): 0.686 µM and 0.329 µM; TGI (TK-10 renal): > 83 µM; GI50 (U251 CNS): 0.26 µM and 0.182 µM; TGI (U251 CNS): > 40.8 µM and 30.1 µM; GI50 (UACC-257 melanoma): 0.54 µM and 0.365 µM; TGI (UACC-257 melanoma): 6.98 µM and 3.86 µM; GI50 (UACC-62 melanoma): 0.296 µM and 0.258 µM; TGI (UACC-62 melanoma): 2.2 µM and 1.11 µM; GI50 (UO-31 renal): 0.214 µM and 0.151 µM; TGI (UO-31 renal): 6.47 µM and 2.96 µM
